Source: ChEMBL document CHEMBL1201862, “PubChem BioAssay data set” (2004)
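How tested: cells in 96-well plates exposed to compound for 48 hours at five concentrations. GI50 is the concentration that inhibits growth by half.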 Activity calls are given as the source filed them. Rule as the data show it: active = GI50 up to about 1.1 µM and inactive = higher.

Assays:
Assay in all cases: DTP human tumour cell line panel, 48 h
A498 = system: A498
A549 = system: A549
HCC 2998 = system: HCC 2998
HL-60 = system: HL-60
K562 = system: K562
KM12 = system: KM12
MDA-N = system: MDA-N
NCI-H522 = system: NCI-H522
OVCAR-3 = system: OVCAR-3
OVCAR-8 = system: OVCAR-8
RXF 393 = system: RXF 393
SK-MEL-28 = system: SK-MEL-28
SK-MEL-5 = system: SK-MEL-5
SK-OV-3 = system: SK-OV-3
SN12C = system: SN12C
U-251 = system: U-251
UACC-257 = system: UACC-257
UO-31 = system: UO-31
BT-549 = system: BT-549
NCI-H226 = system: NCI-H226

SMILES	GI50 (A498)	GI50 (A549)	GI50 (HCC 2998)	GI50 (HL-60)	GI50 (K562)	GI50 (KM12)	GI50 (MDA-N)	GI50 (NCI-H522)	GI50 (OVCAR-3)	GI50 (OVCAR-8)	GI50 (RXF 393)	GI50 (SK-MEL-28)	GI50 (SK-MEL-5)	GI50 (SK-OV-3)	GI50 (SN12C)	GI50 (U-251)	GI50 (UACC-257)	GI50 (UO-31)	GI50 (BT-549)	GI50 (NCI-H226)
CCOC(=O)/C1=C(\C)N(Cc2ccccc2)C(=O)c2ccccc2C(=O)c2c(OC(C)=O)ccc(OC(C)=O)c21	> 100 µM (inactive)	36.4 µM (inactive)	7.6 µM (inactive)	29.9 µM (inactive)	42.9 µM (inactive)	47 µM (inactive)	36 µM (inactive)	34.9 µM (inactive)	23.1 µM (inactive)	67.8 µM (inactive)	33.2 µM (inactive)	> 100 µM (inactive)	33.3 µM (inactive)	> 100 µM (inactive)	> 100 µM (inactive)	> 100 µM (inactive)	61.9 µM (inactive)	> 100 µM (inactive)	–	–
CCOn1cc(C[C@@]2(O)C(=O)OC3[C@@H](O)CO[C@@]32O)c2ccccc21 (stereo not given in full)	1.94 µM (inactive)	> 100 µM (inactive)	–	> 100 µM (inactive)	> 100 µM (inactive)	> 100 µM (inactive)	–	> 100 µM (inactive)	> 100 µM (inactive)	> 100 µM (inactive)	> 100 µM (inactive)	> 100 µM (inactive)	> 100 µM (inactive)	> 100 µM (inactive)	> 100 µM (inactive)	> 100 µM (inactive)	> 100 µM (inactive)	> 100 µM (inactive)	> 100 µM (inactive)	> 100 µM (inactive)
CC1=C2C(=O)C(C)(C)C=C2C(=O)[C@](C)(O)C12CC2 [DEHYDROILLUDIN M]	> 1 µM (active)	> 1 µM (active)	> 0.815 µM (active)	0.247 µM (active)	> 1 µM (active)	> 0.935 µM (active)	–	0.245 µM (active)	> 1 µM (active)	0.56 µM (active)	0.593 µM (active)	> 1 µM (active)	0.296 µM (active)	> 1 µM (active)	> 1 µM (active)	0.484 µM (active)	0.745 µM (active)	> 1 µM (active)	–	> 1 µM (active)
CC1=C/C(=N\OCC(=O)O)CC(c2ccc(C(C)C)cc2)C1 (stereo not given)	–	60.3 µM (inactive)	–	26.5 µM (inactive)	32.3 µM (inactive)	48.5 µM (inactive)	34.5 µM (inactive)	23.2 µM (inactive)	–	27.9 µM (inactive)	> 100 µM (inactive)	–	17.5 µM (inactive)	> 100 µM (inactive)	60.1 µM (inactive)	63.8 µM (inactive)	43 µM (inactive)	–	–	–
C[C@H]1OC(=O)[C@@H]2N=NN(Cc3ccccc3)[C@H]12	> 100 µM (inactive)	> 100 µM (inactive)	> 100 µM (inactive)	–	> 100 µM (inactive)	> 100 µM (inactive)	> 100 µM (inactive)	> 100 µM (inactive)	> 100 µM (inactive)	> 100 µM (inactive)	> 100 µM (inactive)	> 100 µM (inactive)	> 100 µM (inactive)	> 100 µM (inactive)	> 100 µM (inactive)	> 100 µM (inactive)	–	> 100 µM (inactive)	–	–
C/C=C/[C@H]1O[C@@](O)([C@@H](C)[C@H](O)[C@H](C)[C@H]2OC(=O)/C(OC)=C/C(C)=C/[C@@H](C)[C@@H](O)[C@@H](CC)[C@@H](O)[C@H](C)C/C(C)=C/C=C/[C@@H]2OC)C[C@H](OC2CC(O)C(OC(N)=O)C(C)O2)[C@@H]1C (stereo not given in full)	18.8 µM (inactive)	< 0.0181 µM (active)	0.0787 µM (active)	< 0.01 µM (active)	0.024 µM (active)	< 0.0163 µM (active)	–	0.0399 µM (active)	< 0.0181 µM (active)	0.0474 µM (active)	8.87 µM (inactive)	0.74 µM (active)	0.0142 µM (active)	12.8 µM (inactive)	5.65 µM (inactive)	< 0.0281 µM (active)	0.0641 µM (active)	0.0479 µM (active)	0.0843 µM (active)	0.0336 µM (active)
COc1ccccc1NC(=O)CC(=O)n1nc(C)c(/N=N/c2ccccc2F)c1C	> 100 µM (inactive)	98.4 µM (inactive)	> 100 µM (inactive)	> 100 µM (inactive)	> 31.6 µM (inactive)	> 100 µM (inactive)	–	> 100 µM (inactive)	> 100 µM (inactive)	44.6 µM (inactive)	> 57.3 µM (inactive)	> 100 µM (inactive)	> 100 µM (inactive)	31.3 µM (inactive)	> 100 µM (inactive)	58.6 µM (inactive)	> 100 µM (inactive)	> 100 µM (inactive)	–	45.1 µM (inactive)
